Results published in patent US20050025830A1, “Drug delivery device comprising an active compound and method for releasing an active compound from a drug delivery device” (Technische Universiteit Eindhoven, priority 2003, published 2005).

Legend:
[1] = Release of active compound from pressed polymer disc into physiological buffer in shaking bath at 20° C. and 50° C.; type: physicochemical; details: p(BMA-MMA) disc with 75 mol % pBMA, ibuprofen 5% (m/m)
[2] = Concentration of ibuprofen in blood after subcutaneous implantation of disc and alternating ultrasound irradiation; type: in vivo; details: p(BMA-MMA) disc, ibuprofen 3% (m/m), Lewis rat
Description: A pressed circular disc of p(BMA-MMA) with ibuprofen incorporated in the matrix with a mass ratio of 3% (m/m), as described in example 1, was implanted subcutaneously in a Lewis rat. On both sides of the disc a thermocouple was implanted to continuously measure the temperature at the surface of the disc. One hour after implantation the disc was irradiated perpendicularly to the surface with a beam of ultrasonic sound with a power of 0.7 W, a frequency of 10^6 Hz (1 MHz), and a duty cycle of 70%, the probe for generating the ultrasound touching the skin of the rat. A standard physiotherapeutic hydrogel was used in between the skin and the probe. The irradiation with ultrasonic sound was applied in an alternating manner, periods of irradiation of 30 minutes being alternated with periods of 30 minutes without irradiation.
Blood samples were taken each 10 minutes during irradiation and each 20 minutes in the periods without irradiation to determine concentration of ibuprofen in the blood stream as a function of time. After 30 minutes irradiation the concentration of ibuprofen was 0.9 μg/ml, after irradiation the plasma concentration went below 0.01 μg/ml.

[3] = Ultrasound-induced release of ibuprofen from polymer disc into physiological buffer; type: physicochemical; details: PLAGA 50/50 disc, ibuprofen 10% (m/m)
Protocol: An object consisting of a pressed circular disc with a diameter of 2 cm and thickness of 2 mm was provided with a thermocouple in the middle and was then placed in a holder in a vessel containing 0.5 litre physiological buffer. […] The PLAGA was purchased from Purac Biochem, The Netherlands. The glass transition temperature of the matrix of poly(lactic acid-co-glycolic acid) used was 12.7° C. (as compared to Example 1 where a Tg of 43° C. is disclosed. This decrease of the Tg is the result of a higher loading of ibuprofen). The disc was irradiated perpendicularly to the surface with a beam of ultrasonic sound with a power of 4 W and a frequency of 10^6 Hz (1 MHz), the probe for generating the ultrasound being 28 mm away from the disc. The speed of the release of ibuprofen into the physiological buffer was determined as a function of time. Both the temperature of the buffer and the temperature in the disc were measured continuously. The irradiation with ultrasonic sound was applied in an alternating manner, periods of irradiation of 120 minutes being alternated with periods of 60 minutes without irradiation.

## CC(C)Cc1ccc(C(C)C(=O)O)cc1 (stereo not drawn) [ibuprofen]
[1]; 20° C.
  release rate of ibuprofen into the physiological buffer: 0.36 nmol/h
[1]; 50° C.
  release rate of ibuprofen into the physiological buffer: 10 nmol/h
[2]; after irradiation (period without irradiation)
  plasma concentration of ibuprofen: below 0.01 μg/ml
[2]; blood, sc, after 30 minutes irradiation (0.7 W, 1 MHz, duty cycle 70%), read-out: concentration of ibuprofen in the blood stream
  concentration at 30 min: 0.9 µg/mL
[3]
  release of ibuprofen after stopping the irradiation: fell virtually immediately to the base value
[3]; without irradiation (base value), 8° C.
  speed of release of ibuprofen from the disc: less than 1×10^−7 gram/minute
